According to the supplement of paper PMC11061612:

How the values were obtained:
Test in all cases: Bliss excess, mean over the matrix (fraction); higher = more synergy
[1] = tested on: A375 (Melanoma)
How it was run: (§1)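 Bliss excess equals the observed combination effect minus the expected value EA + EB − EA·EB, where EA and EB are the effects of each agent alone. Combination Emax is the second-highest inhibition within the matrix. Inhibition was scaled from CellTiter-Glo 2.0 luminescence, with 0 set by vehicle wells and 1 by blank wells, after 72 hours of two-drug dosing of cells plated in 1536-well plates.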

[2] = tested on: NCI-H2023 (Non-Small Cell Lung Carcinoma)
How it was run: as §1

[3] = tested on: SBC-3 (Small Cell Lung Carcinoma)
How it was run: as §1

[4] = tested on: DK-MG (Glioblastoma)
How it was run: as §1

[5] = tested on: OVKATE (Ovarian Carcinoma)
How it was run: as §1

[6] = tested on: C2BBe1 (Colorectal Carcinoma)
How it was run: as §1

[7] = tested on: NCI-H835 (Other Solid Carcinomas)
How it was run: as §1

[8] = tested on: OCI-M1 (Acute Myeloid Leukemia)
How it was run: as §1

[9] = tested on: NCI-H1975 (Lung Adenocarcinoma)
How it was run: as §1

[10] = tested on: SNU-1 (Gastric Carcinoma)
How it was run: as §1

[11] = tested on: COR-L105 (Lung Adenocarcinoma)
How it was run: as §1

[12] = tested on: BC-1 (B-Cell Non-Hodgkin's Lymphoma)
How it was run: as §1

[13] = tested on: NCI-H1944 (Lung Adenocarcinoma)
How it was run: as §1

[14] = tested on: ATN-1 (T-Lymphoblastic Leukemia)
How it was run: as §1

[15] = tested on: RS4-11 (B-Lymphoblastic Leukemia)
How it was run: as §1

[16] = tested on: TOV-21G (Ovarian Carcinoma)
How it was run: as §1

[17] = tested on: HT-144 (Melanoma)
How it was run: as §1

[18] = tested on: NCI-H1435 (Non-Small Cell Lung Carcinoma)
How it was run: as §1

[19] = tested on: SBC-5 (Small Cell Lung Carcinoma)
How it was run: as §1

[20] = tested on: JJN-3 (Plasma Cell Myeloma)
How it was run: as §1

`Cc1cc2ncnn2cc1Nc1ncc2c(n1)n(C1CCOCC1)c(=O)n2C` [AZD7648] + CN(C)CCCOc1ccc(-c2ccc3ncc4c(c3c2)n(C2CCOCC2)c(=O)n4C)cn1 [AZD0156] (first compound max 10 µM, 7x7, partner max 1 µM) gave a Bliss excess [1] of 0.0165, a Bliss excess [2] of -0.0192 and a Bliss excess [3] of 0.0332. It also gave a Bliss excess [4] of 0.0157, a Bliss excess [5] of -0.0132 and a Bliss excess [6] of -0.0408. The Bliss excess [7] was 0.0086, the Bliss excess [8] was 0.0385 and the Bliss excess [9] was -0.0071. For the same compound, the Bliss excess [10] was 0.01, the Bliss excess [11] was -0.0369 and the Bliss excess [12] was 0.0465. For the same compound, the Bliss excess [13] was -0.0039, the Bliss excess [14] was 0.0185 and the Bliss excess [15] was 0.0397. The Bliss excess [16] was -0.0047, the Bliss excess [17] was 0.0013 and the Bliss excess [18] was 0.0091. It also gave a Bliss excess [19] of 0.0236 and a Bliss excess [20] of -0.0058.
Work on `C[C@@H](c1ccc2nccn2c1)n1nnc2ncc(-c3cnn(C)c3)nc21` [Savolitinib] + Cc1c2c(nn1C)CSCc1cc(n(C)n1)CSc1cc(c3ccccc3c1)OCCCc1c(C(=O)O)n(C)c3c-2c(Cl)ccc13 [AZD5991] (first compound max 1 µM, 7x7, partner max 1 µM) yielded a Bliss excess [1] of -0.0271, a Bliss excess [2] of -0.0323 and a Bliss excess [3] of -0.0321. For the same compound, the Bliss excess [4] was -0.0226, the Bliss excess [5] was -0.0434 and the Bliss excess [6] was -0.0455. The Bliss excess [7] was -0.0267, the Bliss excess [8] was 0.0026 and the Bliss excess [9] was -0.0275. It also gave a Bliss excess [10] of 0.0005, a Bliss excess [11] of -0.0086 and a Bliss excess [12] of -0.0076. It also gave a Bliss excess [13] of -0.0112, a Bliss excess [14] of -0.0293 and a Bliss excess [15] of -0.0406. It also gave a Bliss excess [16] of -0.0111, a Bliss excess [17] of -0.054 and a Bliss excess [18] of -0.0263. The Bliss excess [19] was 0.0286 and the Bliss excess [20] was -0.0384.
With `Cc1cc2ncnn2cc1Nc1ncc2c(n1)n(C1CCOCC1)c(=O)n2C` [AZD7648] + CCN(CCO)CCCOc1ccc2c(Nc3cc(CC(=O)Nc4cccc(F)c4)[nH]n3)ncnc2c1 [AZD2811] (first compound max 10 µM, 7x7, partner max 1 µM) the Bliss excess [1] was 0.0251, the Bliss excess [2] was -0.0238 and the Bliss excess [3] was 0.0455. The Bliss excess [4] was 0.0189, the Bliss excess [5] was -0.0834 and the Bliss excess [6] was 0.0124. It also gave a Bliss excess [7] of 0.0595, a Bliss excess [8] of 0.0449 and a Bliss excess [9] of 0.008. The Bliss excess [10] was 0.0214, the Bliss excess [11] was -0.0508 and the Bliss excess [12] was 0.035. For the same compound, the Bliss excess [13] was 0.0709, the Bliss excess [14] was -0.0768 and the Bliss excess [15] was -0.0355. For the same compound, the Bliss excess [16] was 0.0183, the Bliss excess [17] was 0.0088 and the Bliss excess [18] was 0.0409. It also gave a Bliss excess [19] of 0.057 and a Bliss excess [20] of 0.0202.
Work on `Cc1nc(Nc2ncc(C(=O)Nc3c(C)cccc3Cl)s2)cc(N2CCN(CCO)CC2)n1` [Dasatinib] + CC(=O)Nc1cccc(-n2c(=O)n(C3CC3)c(=O)c3c(Nc4ccc(I)cc4F)n(C)c(=O)c(C)c32)c1 [Trametinib] (first compound max 2 µM, 7x7, partner max 1 µM) yielded a Bliss excess [1] of 0.0736, a Bliss excess [2] of -0.0228 and a Bliss excess [3] of 0.0453. For the same compound, the Bliss excess [4] was -0.0685, the Bliss excess [5] was -0.0147 and the Bliss excess [6] was 0.0323. The Bliss excess [7] was -0.0662, the Bliss excess [8] was 0.0346 and the Bliss excess [9] was 0.0302. For the same compound, the Bliss excess [10] was -0.0263, the Bliss excess [11] was 0.0567 and the Bliss excess [12] was 0.0858. For the same compound, the Bliss excess [13] was 0.0343, the Bliss excess [14] was -0.089 and the Bliss excess [15] was -0.0685. For the same compound, the Bliss excess [16] was 0.0199, the Bliss excess [17] was -0.0825 and the Bliss excess [18] was 0.0975. For the same compound, the Bliss excess [19] was 0.025 and the Bliss excess [20] was 0.0148.
`Cc1cc2ncnn2cc1Nc1ncc2c(n1)n(C1CCOCC1)c(=O)n2C` [AZD7648] + C=CCn1c(=O)c2cnc(Nc3ccc(N4CCN(C)CC4)cc3)nc2n1-c1cccc(C(C)(C)O)n1 [AZD1775] (first compound max 10 µM, partner max 1 µM) was tested, and the Bliss excess [1] was 0.0217, the Bliss excess [2] was 0.027 and the Bliss excess [3] was -0.0374. For the same compound, the Bliss excess [4] was 0.0398, the Bliss excess [5] was -0.001 and the Bliss excess [6] was -0.0115. For the same compound, the Bliss excess [7] was 0.0229, the Bliss excess [8] was -0.044 and the Bliss excess [9] was -0.0107. It also gave a Bliss excess [10] of -0.0572, a Bliss excess [11] of -0.0431 and a Bliss excess [12] of 0.004. The Bliss excess [13] was -0.0005, the Bliss excess [14] was -0.0176 and the Bliss excess [15] was 0.0667. It also gave a Bliss excess [16] of -0.0672, a Bliss excess [17] of 0.0458 and a Bliss excess [18] of 0.0816. The Bliss excess [19] was -0.0136 and the Bliss excess [20] was -0.0726.
`Cc1cc2ncnn2cc1Nc1ncc2c(n1)n(C1CCOCC1)c(=O)n2C` [AZD7648] + C[C@@H]1COCCN1C2=NC(=NC(=C2)C3(CC3)[S@](=N)(=O)C)C4=C5C=CNC5=NC=C4 [AZD6738] (first compound max 10 µM, 7x7, partner max 10 µM) was tested, and the Bliss excess [1] was 0.0301, the Bliss excess [2] was 0.0722 and the Bliss excess [3] was 0. The Bliss excess [4] was 0.0297, the Bliss excess [5] was 0.0232 and the Bliss excess [6] was 0.0209. The Bliss excess [7] was 0.0417, the Bliss excess [8] was 0.0125 and the Bliss excess [9] was 0.015. It also gave a Bliss excess [10] of -0.013, a Bliss excess [11] of -0.0511 and a Bliss excess [12] of -0.016. The Bliss excess [13] was 0.0055, the Bliss excess [14] was 0.0406 and the Bliss excess [15] was -0.058. It also gave a Bliss excess [16] of 0.002, a Bliss excess [17] of 0.0349 and a Bliss excess [18] of 0.0536. For the same compound, the Bliss excess [19] was 0.0284 and the Bliss excess [20] was -0.0051.
